Laboratory results from patent publication US20080200448A1, “New Pyridine Analogues VIII 518” (ASTRAZENECA AB, priority 2007, published 2008).

The molecules below were run against T1, P2Y12 receptor (Homo sapiens, UniProt Q9H244) (assay: Functional inhibition of 2-Me-S-ADP induced P2Y12 signalling (35S-GTPγS binding, cell membranes)). Conditions: 35S-GTPγS assay, membranes, EC80 concentration of 2-methyl-thio-adenosine diphosphate, 30° C. for 45 min; read-out: GTPγS (IC50 μM).
T1 construct: expressed in transfected cells; host or cells: CHO cells (membrane preparation)
Format: biochemical
Procedure: Functional inhibition of- the P2Y12 receptor can be measured by in vitro assays using cell membranes from P2Y12 transfected CHO-cells, the methodology is indicated below.
Functional inhibition of 2-Me-S-ADP induced P2Y12 signalling: 5 μg of membranes were diluted in 200 μl of 200 mM NaCl, 1 mM MgCl2, 50 mM HEPES (pH 7.4), 0.01% BSA, 30 μg/ml saponin and 10 μM GDP. To this was added an EC80 concentration of agonist (2-methyl-thio-adenosine diphosphate), the required concentration of test compound and 0.1 μCi ^35S-GTPγS. The reaction was allowed to proceed at 30° C. for 45 min. Samples were then transferred on to GF/B filters using a cell harvester and washed with wash buffer (50 mM Tris (pH 7.4), 5 mM MgCl2, 50 mM NaCl). Filters were then covered with scintilant and counted for the amount of ^35S-GTPγS retained by the filter. Maximum activity was that determined in the presence of the agonist and minimum activity in the absence of the agonist following subtraction of the value determined for non-specific activity. The effect of compounds at various concentrations was plotted according to the equation
y=A+((B−A)/(1+((C/x)̂D)))
and IC50 estimated where A is the bottom plateau of the curve i.e. the final minimum y value B is the top of the plateau of the curve i.e. the final maximum y value C is the x value at the middle of the curve. This represents the log EC50 value when A+B=100 D is the slope factor. x is the original known x values. Y is the original known y values.

T1 sequence (Q9H244 whole entry): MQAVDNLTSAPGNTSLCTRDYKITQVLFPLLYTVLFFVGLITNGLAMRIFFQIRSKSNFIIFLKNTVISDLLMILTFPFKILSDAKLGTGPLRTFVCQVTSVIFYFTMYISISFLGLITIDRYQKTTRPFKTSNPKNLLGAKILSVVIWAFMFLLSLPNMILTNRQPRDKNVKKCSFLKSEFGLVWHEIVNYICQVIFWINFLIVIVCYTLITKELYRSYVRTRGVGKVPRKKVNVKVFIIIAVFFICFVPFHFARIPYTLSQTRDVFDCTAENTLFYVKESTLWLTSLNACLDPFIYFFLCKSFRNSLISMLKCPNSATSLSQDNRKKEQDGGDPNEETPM

Row | IC50 [µM] | Structure (SMILES)
1 | 0.012 | CCOC(=O)c1cc(C#N)c(N2CCC(C(=O)NS(=O)(=O)Cc3ccc(C)cc3)CC2)nc1CN1CCCC1=O [Example 42, Ethyl 5-cyano-6-(4-{[(4-methylbenzyl)sulfonyl]carbamoyl}piperidin-1-yl)-2-[(2-oxopyrrolidin-1-yl)methyl]nicotinate]
2 | 0.178 | CC(C)OC(=O)c1cc(Cl)c(N2CCC(C(=O)NS(=O)(=O)Cc3ccccc3)CC2)nc1CN1CCCC1=O [Example 96, Isopropyl 6-{4-[(benzylsulfonyl)carbamoyl]piperidin-1-yl}-5-chloro-2-[(2-oxopyrrolidin-1-yl)methyl]nicotinate]
3 | 0.064 | CCOC(=O)c1cc(C#N)c(N2CC(C(=O)NS(=O)(=O)Cc3ccccc3)C2)nc1CN1C(=O)CCC1=O [Example 13, Ethyl 6-{3-[(benzylsulfonyl)carbamoyl]azetidin-1-yl}-5-cyano-2-[(2,5-dioxopyrrolidin-1-yl)methyl]nicotinate]
4 | 0.072 | CCOC(=O)CSc1nc(N2CCC(C(=O)NS(=O)(=O)Cc3ccc(F)cc3Cl)CC2)c(C#N)cc1C(=O)OCC [Example 108, Ethyl 6-(4-{[(2-chloro-4-fluorobenzyl)sulfonyl]carbamoyl}piperidin-1-yl)-5-cyano-2-[(2-ethoxy-2-oxoethyl)thio]nicotinate]
5 | 0.019 | CCOC(=O)c1cc(C#N)c(N2CCC(C(=O)NS(=O)(=O)Cc3ccccc3)CC2)nc1O[C@@H](C)C(=O)OCC [Example 120, Ethyl 6-{4-[(benzylsulfonyl)carbamoyl]piperidin-1-yl}-5-cyano-2-[(1S)-2-ethoxy-1-methyl-2-oxoethoxy]nicotinate]
6 | 0.013 | CCOC(=O)c1cc(C#N)c(N2CCC(C(=O)NS(=O)(=O)Cc3ccccc3)CC2)nc1SCC(=O)N1CCC1 [Example 124, Ethyl 2-[(2-azetidin-1-yl-2-oxoethyl)thio]-6-{4-[(benzylsulfonyl)carbamoyl]piperidin-1-yl}-5-cyanonicotinate]
7 | 1.07 | CCOC(=O)c1cc(C#N)c(N2CC(C(=O)NS(=O)(=O)Cc3ccccc3)C2)nc1CN(C)C [Example 6, Ethyl 6-{3-[(benzylsulfonyl)carbamoyl]azetidin-1-yl}-5-cyano-2-[(dimethylamino)methyl]nicotinate]
8 | 0.03 | CCOC(=O)c1cc(C#N)c(N2CCC(C(=O)NS(=O)(=O)Nc3ccccc3)CC2)nc1CN1CCCC1=O [Example 55, Ethyl 6-{4-[(anilinosulfonyl)carbamoyl]piperidin-1-yl}-5-cyano-2-[(2-oxopyrrolidin-1-yl)methyl]nicotinate]
9 | 0.039 | CCOC(=O)COc1nc(N2CCC(C(=O)NS(=O)(=O)Cc3ccccc3)CC2)c(C#N)cc1C(=O)OCC [Example 8, Ethyl 6-{4-[(benzylsulfonyl)carbamoyl]piperidin-1-yl}-5-cyano-2-(2-ethoxy-2-oxoethoxy)nicotinate]
10 | 0.0097 | CCOC(=O)c1cc(C#N)c(N2CCC(C(=O)NS(=O)(=O)Cc3ccccc3)CC2)nc1CN1CCCC1=O [Example 33, Ethyl 6-{4-[(benzylsulfonyl)carbamoyl]piperidin-1-yl}-5-cyano-2-[(2-oxopyrrolidin-1-yl)methyl]nicotinate]
11 | 0.056 | CCOC(=O)CCc1nc(N2CCC(C(=O)NS(=O)(=O)Cc3ccccc3)CC2)c(C#N)cc1C(=O)OCC [Example 107, Ethyl 6-{4-[(benzylsulfonyl)carbamoyl]piperidin-1-yl}-5-cyano-2-(3-ethoxy-3-oxopropyl)nicotinate]
12 | 0.013 | CCOC(=O)c1cc(C#N)c(N2CCC(C(=O)NS(=O)(=O)N(C)c3ccccc3)CC2)nc1CN1CCCC1=O [Example 57, Ethyl 5-cyano-6-[4-({[methyl(phenyl)amino]sulfonyl}carbamoyl)piperidin-1-yl]-2-[(2-oxopyrrolidin-1-yl)methyl]nicotinate]
13 | 0.031 | CCOC(=O)c1cc(C#N)c(N2CCC(C(=O)NS(=O)(=O)Cc3ccccc3)CC2)nc1OCCO [Example 18, Ethyl 6-{4-[(benzylsulfonyl)carbamoyl]piperidin-1-yl}-5-cyano-2-(2-hydroxyethoxy)nicotinate]
